{
  "source": "patent US20110040086A1",
  "about": "“Novel Beta-Lactam Antibiotics, Methods for Their Production, and Their Use” (DRITTE PATENTPORTFOLIO BETEILIGUNGSGESELLSCHAFT MB, priority 2007, published 2011)",
  "key": {"[1]": {"tested_on": "Escherichia coli SBUG 1135", "assay": "agar diffusion test (Test System 1, antimicrobial effect)", "assay_type": "cell-based", "outline": "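Disc diffusion: compound at 10 μg, 50 μg, 100 μg on sensi-discs, three per plate of nutrient agar seeded with ~10^6 E. coli SBUG 1135 (overnight culture, 17 h, 37° C, diluted 1:100). After 20 h incubation at 37° C, zone diameter recorded in mm.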"}, "S. epidermidis 125": {"tested_on": "S. epidermidis 125", "assay": "agar diffusion test (Test System II, multi-resistant germs)", "assay_type": "cell-based, Staphylococcus epidermidis", "outline": "(§1)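 Stepped amounts of each substance (10, 50, 100 μg) were applied to carrier discs from methanol or water according to solubility. These were laid on Müller-Hinton agar II inoculated at McFarland 0.5, and zones of inhibition were read following overnight incubation (18-20 h) at 37 °C.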"}, "S. epidermidis 847": {"tested_on": "S. epidermidis 847", "assay": "agar diffusion test (Test System II, multi-resistant germs)", "assay_type": "cell-based, Staphylococcus epidermidis", "outline": "as §1"}, "S. epidermidis 1068": {"tested_on": "S. epidermidis 1068", "assay": "agar diffusion test (Test System II, multi-resistant germs)", "assay_type": "cell-based, Staphylococcus epidermidis", "outline": "as §1"}, "S. epidermidis 1071": {"tested_on": "S. epidermidis 1071", "assay": "agar diffusion test (Test System II, multi-resistant germs)", "assay_type": "cell-based, Staphylococcus epidermidis", "outline": "as §1"}, "S. epidermidis 563": {"tested_on": "S. epidermidis 563", "assay": "agar diffusion test (Test System II, multi-resistant germs)", "assay_type": "cell-based, Staphylococcus epidermidis", "outline": "as §1"}, "S. aureus 39105": {"tested_on": "S. aureus 39105", "assay": "agar diffusion test (Test System II, multi-resistant germs)", "assay_type": "cell-based, Staphylococcus aureus", "set-up": "key: r = resistant (no detectable zone of inhibition)", "outline": "as §1"}, "S. aureus 520": {"tested_on": "S. aureus 520", "assay": "agar diffusion test (Test System II, multi-resistant germs)", "assay_type": "cell-based, Staphylococcus aureus", "set-up": "key: r = resistant (no detectable zone of inhibition)", "outline": "as §1"}, "S. aureus 33490": {"tested_on": "S. aureus 33490", "assay": "agar diffusion test (Test System II, multi-resistant germs)", "assay_type": "cell-based, Staphylococcus aureus", "set-up": "key: r = resistant (no detectable zone of inhibition)", "outline": "as §1"}, "S. aureus 34289": {"tested_on": "S. aureus 34289", "assay": "agar diffusion test (Test System II, multi-resistant germs)", "assay_type": "cell-based, Staphylococcus aureus", "set-up": "key: r = resistant (no detectable zone of inhibition)", "outline": "as §1"}, "S. aureus 526": {"tested_on": "S. aureus 526", "assay": "agar diffusion test (Test System II, multi-resistant germs)", "assay_type": "cell-based, Staphylococcus aureus", "set-up": "key: r = resistant (no detectable zone of inhibition)", "outline": "as §1"}, "S. aureus 36881": {"tested_on": "S. aureus 36881", "assay": "agar diffusion test (Test System II, multi-resistant germs)", "assay_type": "cell-based, Staphylococcus aureus", "set-up": "key: r = resistant (no detectable zone of inhibition)", "outline": "as §1"}, "[2]": {"tested_on": "S. aureus North Germany strain", "assay": "agar diffusion test (Test System II, multi-resistant germs)", "assay_type": "cell-based, Staphylococcus aureus", "set-up": "key: r = resistant (no detectable zone of inhibition)", "outline": "as §1"}, "[3]": {"tested_on": "Staphylococcus aureus 315", "assay": "agar diffusion test (Test System II, multi-resistant germs)", "assay_type": "cell-based", "set-up": "key: r = resistant (no detectable zone of inhibition)", "outline": "as §1"}, "[4]": {"tested_on": "Enterococcus faecalis 769", "assay": "agar diffusion test (Test System II, multi-resistant germs)", "assay_type": "cell-based", "set-up": "key: r = resistant (no detectable zone of inhibition)", "outline": "as §1"}, "B. subtilis AWD 166": {"tested_on": "B. subtilis AWD 166", "assay": "agar diffusion test (antimicrobial effect)", "assay_type": "cell-based, Bacillus subtilis", "outline": "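Inhibition zone diameters (mm) read after 20 h incubation at 37 °C. Discs carried 10 μg, 50 μg or 100 μg of test substance, dissolved in methanol or distilled water, on agar inoculated with B. subtilis AWD 166 for dense but separate colonies.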"}, "[5]": {"tested_on": "Bacillus megaterium SBUG 1152", "assay": "agar diffusion test (Test System 1, antimicrobial effect)", "assay_type": "cell-based", "outline": "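Paper discs loaded with 10 μg, 50 μg or 100 μg of test substance (methanol or water solution) placed on nutrient agar seeded with 10^6 cells of a 17-h B. megaterium culture. After 20 h at 37° C., zone of inhibition measured as diameter in mm.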"}, "E. faecalis 945": {"tested_on": "E. faecalis 945", "assay": "agar diffusion test (Test System II, multi-resistant germs)", "assay_type": "cell-based, Enterococcus faecalis", "set-up": "key: r = resistant (no detectable zone of inhibition)", "outline": "as §1"}},
  "data": [
    {"smiles": "O=C(O)C1=C(Cl)CSC2C(NC(=O)C(NC3=C(C(=O)NCCO)C(=O)C=CC3=O)c3ccccc3)C(=O)N12", "note": "(stereo not drawn) [1i, 3-chlorine-7-{2-[2-(2-hydroxyethylcarbamoyl)-3,6-dioxocyclohexa-1,4-dienylamino]-2-phenyl-acetylamino}-8-oxo-1-thia-5-azabicyclo[4.2.0]oct-3-en-4-carboxylic acid]", "values": [
      {"measurement": "Diameter of zone of inhibition", "setting": "[1]; Quantity n 0.029", "value": 18, "unit": "mm"},
      {"measurement": "Diameter of zone of inhibition", "setting": "[1]; Quantity n 0.14", "value": 24, "unit": "mm"},
      {"measurement": "Diameter of zone of inhibition", "setting": "[1]; Quantity n 0.29", "value": 28, "unit": "mm"},
      {"measurement": "Diameter of zone of inhibition", "setting": "S. epidermidis 125; Quantity n 0.029", "value": 20, "unit": "mm"},
      {"measurement": "Diameter of zone of inhibition", "setting": "S. epidermidis 125; Quantity n 0.14", "value": 28, "unit": "mm"},
      {"measurement": "Diameter of zone of inhibition", "setting": "S. epidermidis 125; Quantity n 0.29", "value": 32, "unit": "mm"},
      {"measurement": "Diameter of zone of inhibition", "setting": "S. epidermidis 847; Quantity n [mol] 0.029", "value": 12, "unit": "mm"},
      {"measurement": "Diameter of zone of inhibition", "setting": "S. epidermidis 847; Quantity n [mol] 0.14", "value": 20, "unit": "mm"},
      {"measurement": "Diameter of zone of inhibition", "setting": "S. epidermidis 847; Quantity n [mol] 0.29", "value": 24, "unit": "mm"},
      {"measurement": "Diameter of zone of inhibition", "setting": "S. epidermidis 1068; Quantity n 0.029", "value": 12, "unit": "mm"},
      {"measurement": "Diameter of zone of inhibition", "setting": "S. epidermidis 1068; Quantity n 0.14", "value": 18, "unit": "mm"},
      {"measurement": "Diameter of zone of inhibition", "setting": "S. epidermidis 1068; Quantity n 0.29", "value": 22, "unit": "mm"},
      {"measurement": "Diameter of zone of inhibition", "setting": "S. epidermidis 1071; Quantity n 0.029", "value": 14, "unit": "mm"},
      {"measurement": "Diameter of zone of inhibition", "setting": "S. epidermidis 1071; Quantity n 0.14", "value": 22, "unit": "mm"},
      {"measurement": "Diameter of zone of inhibition", "setting": "S. epidermidis 1071; Quantity n 0.29", "value": 26, "unit": "mm"},
      {"measurement": "Diameter of zone of inhibition", "setting": "S. epidermidis 563; Quantity n 0.029", "value": 12, "unit": "mm"},
      {"measurement": "Diameter of zone of inhibition", "setting": "S. epidermidis 563; Quantity n 0.14", "value": 22, "unit": "mm"},
      {"measurement": "Diameter of zone of inhibition", "setting": "S. epidermidis 563; Quantity n 0.29", "value": 24, "unit": "mm"},
      {"measurement": "Diameter of zone of inhibition", "setting": "S. aureus 39105; Quantity n 0.029", "value": "r"},
      {"measurement": "Diameter of zone of inhibition", "setting": "S. aureus 39105; Quantity n 0.14", "value": 18, "unit": "mm"},
      {"measurement": "Diameter of zone of inhibition", "setting": "S. aureus 39105; Quantity n 0.29", "value": 22, "unit": "mm"},
      {"measurement": "Diameter of zone of inhibition", "setting": "S. aureus 520; Quantity n [mol] 0.029", "value": "r"},
      {"measurement": "Diameter of zone of inhibition", "setting": "S. aureus 520; Quantity n [mol] 0.14", "value": "r"},
      {"measurement": "Diameter of zone of inhibition", "setting": "S. aureus 520; Quantity n [mol] 0.29", "value": "r"},
      {"measurement": "Diameter of zone of inhibition", "setting": "S. aureus 33490; Quantity n [μmol] 0.029", "value": 14, "unit": "mm"},
      {"measurement": "Diameter of zone of inhibition", "setting": "S. aureus 33490; Quantity n [μmol] 0.14", "value": 22, "unit": "mm"},
      {"measurement": "Diameter of zone of inhibition", "setting": "S. aureus 33490; Quantity n [μmol] 0.29", "value": 26, "unit": "mm"},
      {"measurement": "Diameter of zone of inhibition", "setting": "S. aureus 34289; Quantity n [mol] 0.029", "value": "r"},
      {"measurement": "Diameter of zone of inhibition", "setting": "S. aureus 34289; Quantity n [mol] 0.14", "value": "r"},
      {"measurement": "Diameter of zone of inhibition", "setting": "S. aureus 34289; Quantity n [mol] 0.29", "value": "r"},
      {"measurement": "Diameter of zone of inhibition", "setting": "S. aureus 526; Quantity n 0.029", "value": "r"},
      {"measurement": "Diameter of zone of inhibition", "setting": "S. aureus 526; Quantity n 0.14", "value": "r"},
      {"measurement": "Diameter of zone of inhibition", "setting": "S. aureus 526; Quantity n 0.29", "value": "r"},
      {"measurement": "Diameter of zone of inhibition", "setting": "S. aureus 36881; Quantity n 0.029", "value": "r"},
      {"measurement": "Diameter of zone of inhibition", "setting": "S. aureus 36881; Quantity n 0.14", "value": 12, "unit": "mm"},
      {"measurement": "Diameter of zone of inhibition", "setting": "S. aureus 36881; Quantity n 0.29", "value": 18, "unit": "mm"},
      {"measurement": "Diameter of zone of inhibition", "setting": "[2]; Quantity n 0.029", "value": "r"},
      {"measurement": "Diameter of zone of inhibition", "setting": "[2]; Quantity n 0.14", "value": 12, "unit": "mm"},
      {"measurement": "Diameter of zone of inhibition", "setting": "[2]; Quantity n 0.29", "value": 16, "unit": "mm"},
      {"measurement": "Diameter of zone of inhibition", "setting": "[3]; Quantity n 0.029", "value": "r"},
      {"measurement": "Diameter of zone of inhibition", "setting": "[3]; Quantity n 0.14", "value": 10, "unit": "mm"},
      {"measurement": "Diameter of zone of inhibition", "setting": "[3]; Quantity n 0.29", "value": 14, "unit": "mm"},
      {"measurement": "Diameter of zone of inhibition", "setting": "[4]; Quantity n 0.029", "value": "r"},
      {"measurement": "Diameter of zone of inhibition", "setting": "[4]; Quantity n 0.14", "value": "r"},
      {"measurement": "Diameter of zone of inhibition", "setting": "[4]; Quantity n 0.29", "value": "r"},
      {"measurement": "Diameter of zone of inhibition", "setting": "B. subtilis AWD 166; Quantity n 0.029", "value": 30, "unit": "mm"},
      {"measurement": "Diameter of zone of inhibition", "setting": "B. subtilis AWD 166; Quantity n 0.14", "value": 36, "unit": "mm"},
      {"measurement": "Diameter of zone of inhibition", "setting": "B. subtilis AWD 166; Quantity n 0.29", "value": 38, "unit": "mm"},
      {"measurement": "Diameter of zone of inhibition", "setting": "[5]; Quantity n 0.029", "value": 26, "unit": "mm"},
      {"measurement": "Diameter of zone of inhibition", "setting": "[5]; Quantity n 0.14", "value": 32, "unit": "mm"},
      {"measurement": "Diameter of zone of inhibition", "setting": "[5]; Quantity n 0.29", "value": 34, "unit": "mm"},
      {"measurement": "Diameter of zone of inhibition", "setting": "E. faecalis 945; Quantity n 0.029", "value": "r"},
      {"measurement": "Diameter of zone of inhibition", "setting": "E. faecalis 945; Quantity n 0.14", "value": "r"},
      {"measurement": "Diameter of zone of inhibition", "setting": "E. faecalis 945; Quantity n 0.29", "value": "r"}
    ]}
  ]
}
